Results taken from the NIST ThermoML archive (doi:10.1021/je5003797).
Values joined by “and” are separate entries in the source; they are usually repeats but may differ in a detail not shown here. Equal entries are not always repeated.

Assay: mn = molality of the nth substance listed, in mol/kg
Settings: 298.15 K, 101 kPa, Liquid

NC=O [formamide] + O
Settings | mass density
m1 = 0.4985 | 1000.74 kg/m3
m1 = 0.5096 | 1000.84 kg/m3
m1 = 0.5191 | 1000.9 kg/m3
m1 = 0.9969 | 1004.03 kg/m3
m1 = 1.081 | 1004.59 kg/m3
m1 = 1.085 | 1004.61 kg/m3
m1 = 1.499 | 1007.18 kg/m3 and 1007.2 kg/m3
m1 = 1.5 | 1007.19 kg/m3
m1 = 1.999 | 1010.19 kg/m3 and 1010.16 kg/m3
m1 = 2.007 | 1010.21 kg/m3
m1 = 2.48 | 1012.92 kg/m3
m1 = 2.488 | 1012.96 kg/m3
m1 = 2.502 | 1013.04 kg/m3
m1 = 2.994 | 1015.72 kg/m3
m1 = 3 | 1015.76 kg/m3
m1 = 3.002 | 1015.76 kg/m3
m1 = 3.476 | 1018.24 kg/m3
m1 = 3.502 | 1018.39 kg/m3
m1 = 3.535 | 1018.55 kg/m3
m1 = 3.999 | 1020.84 kg/m3
m1 = 4.044 | 1021.08 kg/m3
m1 = 4.137 | 1021.53 kg/m3
m1 = 4.49 | 1023.21 kg/m3
m1 = 4.502 | 1023.26 kg/m3
m1 = 4.505 | 1023.29 kg/m3
m1 = 5.002 | 1025.56 kg/m3
m1 = 5.012 | 1025.61 kg/m3
m1 = 5.067 | 1025.86 kg/m3
m1 = 5.49 | 1027.73 kg/m3
m1 = 5.547 | 1027.97 kg/m3
m1 = 5.575 | 1028.1 kg/m3
m1 = 5.973 | 1029.8 kg/m3
m1 = 6.008 | 1029.91 kg/m3
m1 = 6.01 | 1029.95 kg/m3
m1 = 6.497 | 1031.91 kg/m3
m1 = 6.503 | 1031.93 kg/m3
m1 = 6.51 | 1031.98 kg/m3
m1 = 6.99 | 1033.87 kg/m3
m1 = 7.004 | 1033.94 kg/m3
m1 = 7.056 | 1034.12 kg/m3
m1 = 7.468 | 1035.69 kg/m3
m1 = 7.481 | 1035.75 kg/m3
m1 = 7.493 | 1035.75 kg/m3
m1 = 7.99 | 1037.61 kg/m3
m1 = 8.002 | 1037.64 kg/m3
m1 = 8.037 | 1037.77 kg/m3
m1 = 8.468 | 1039.27 kg/m3
m1 = 8.506 | 1039.42 kg/m3
m1 = 8.522 | 1039.45 kg/m3
m1 = 8.947 | 1040.93 kg/m3
m1 = 8.99 | 1041.07 kg/m3
m1 = 9.032 | 1041.2 kg/m3
